We go through 7 molecules from US4760072A, “Solid nedocromil sodium, useful for the removal of obstructed air pathways” (Fisons, plc, priority 1984, dated 1988).

Values joined by “and” are separate entries in the source; they are usually repeats but may differ in a detail not shown here. Equal values may be shown once. Where a name gives a salt, the structure may show the parent alone.

A short description of data set [1]: Air classification of ground nedocromil sodium. The format is physicochemical. The text has this:
It is further known to be desirable to make inhalation pharmaceuticals in the form of fine particles. These fine particles are conventionally made by grinding or milling larger sized particles of the pharmaceutical. Generally grinding and milling machines are extremely efficient and reduce the particle size of the material as far as they are capable in a single pass. Indeed the mass median diameter of product material can increase after a second pass through the grinder because some of the finest particles are lost to the system. We have also attempted to produce a material of very fine particle size by air classification of ground nedocromil sodium.

The nature of data set [2]: Aerosol dispersion with single stage liquid impinger. The format is physicochemical. The text has this: The single stage liquid impinger samples the whole cloud delivered from the aerosol and separates it into two fractions by inertial impaction. The fraction of smaller particle size is less than 10 microns in aerodynamic diameter and represents material which is likely to penetrate into the deeper regions of the human airways.
In four laboratory precipitations using this method particles of mass mean diameter 2.5, 2.5, 2.8 and 2.8 microns were produced, and these gave aerosol dispersions of 26% and 23% from a 50 microliter valve using the formulation described in Example 1. The dispersion was measured with a single stage liquid impinger.

For data set [3] the following is noted: 20° C.; cited from earlier work.
A short description of data set [4]: Particle size analysis by Joyce-Loebl disc centrifuge. Format: physicochemical. The note with it: four laboratory precipitations; Apex milled and micronised in a fluid energy mill. How it is done: By mass median diameter we mean the diameter such that half the particulate mass is in particles of lesser diameter and half in particles of greater diameter. The mass median diameter is essentially a Stokes diameter and may be determined using a Joyce Loebl sedimentation disc centrifuge either in a two layer or line start photometric mode (Bagness J and Ottaway A. Proc. Soc. Analyt. Chem. Part 4, Vol 9, 1972 pages 83-86).
Twenty grams of nedocromil sodium were mixed with 60 ml of de-ionised water and 180 ml isopropanol in a 700 ml reaction flask. The mixture was agitated with an anchor-type stirrer at 120 rpm, and heated to its boiling point at around 80° C. The flask was fitted with a water-cooled condenser to prevent escape of isopropanol vapour. The resulting solution was refluxed for about 10 minutes to ensure complete dissolution. The hot solution of nedocromil sodium was then cooled to 75° C. and then added in about 20 seconds to 190 ml of isopropanol at 8° C. The resulting slurry was stirred with the anchor agitator and cooled to 25° C. in the reaction flask. The time taken for cooling was about 45 minutes and throughout this time the crystal slurry remained as the pale yellow, free flowing form. The slurry was then filtered on a Buchner filter using terylene filter cloth, washed with about 50 ml isopropanol and dried in an oven at 60° C. to constant weight. […]

A short description of data set [5]: Physical stability of solid form B. Format: physicochemical.
Data set [6] can be described thus: Bound water / thermogravimetric analysis. Format: physicochemical. Here is the method:
Form A material containing bound water can best be identified by thermogravimetric analysis in which the temperature of the material to be tested is increased at a constant rate and the change in weight of the sample is recorded against time.
(a) Two samples of about 5 mg of nedocromil sodium were submitted to thermogravimetric analysis at a scan rate of 20° C. per minute.

The nature of data set [7]: Powder X-ray diffraction, crystallinity. Format: physicochemical. The text has this:
These peaks indicate that the material is crystalline.
In addition to the form A material there is a less desired form B which is of darker yellow colour, i.e. gives a yellow reading of 2.0 or more at 10% w/w total water using a Lovibond tintometer.

The nature of data set [8]: Solid form produced by precipitation process. Format: physicochemical. Here is the method:
Twenty grams of the nedocromil sodium were dissolved in 60 ml of deionised water and 180 ml of isopropyl alcohol by heating to reflux at 81° C. To this solution was then added a further 190 ml of isopropanol (temperature 25° C.) with agitation. The crystal slurry was then cooled in air, maintaining agitation, until a temperature of 25° C. had been reached. The crystals were then filtered on a Buchner filter, using a terylene filter cloth. The filter cake was washed with a displacement volume of isopropanol and filtered further. The cake was then dried in an oven, at atmospheric pressure and 60° C., to constant weight.
1 Kg of nedocromil sodium is dissolved in three liters of deionised water and six liters of isopropanol at 30° C., and the mixture is then heated to reflux (at 81° C.) with agitation to ensure dissolution. The resulting solution is cooled slightly to about 75° C. and then added to another 12.5 liters of isopropanol at a temperature of about -8° C., as quickly as possible. This precipitates out most of the nedocromil sodium and produces a slurry. This slurry is then stirred and cooled to 25° C. over about an hour, to precipitate out further material. The temperature of the slurry is kept at 25° C. and the slurry filtered as soon as possible to remove the mother liquor, and then dried to constant weight at 60° C. […]

The nature of data set [9]: Viscosity of precipitated crystal slurry. The format is physicochemical. The note with it: 140 ml isopropanol at 15° C. added; cooled to 22° C. in 30 minutes. Here is the method: Twenty grams of crude nedocromil sodium were mixed with 60 ml of deionised water and 180 ml of isopropyl alcohol in a 700 ml reaction flask. The mixture was agitated with an anchor-type agitator at 120 rpm and heated to boiling point at about 80° C. The solution was refluxed for 10 minutes and then cooled to 75° C. To it was then added a further 140 ml isopropanol at 15° C. […] The resulting slurry was then agitated as in Example 4 and cooled in an ice/salt/isopropanol bath to 22° C. in 30 minutes. […] This slurry was filtered, washed and dried as in Example 4.

With `CCCc1c2oc(C(=O)O)cc(=O)c2cc2c(=O)cc(C(=O)O)n(CC)c12` [nedocromil sodium, disodium salt of 9-ethyl-6,9-dihydro-4,6-dioxo-10-propyl-4H-pyrano[3,2-g]-quinoline-2,8-dicarboxylic acid], in data set [1], the “mean particle size after air classification” value was “larger mean particle size than the starting material”. For the same molecule, the “dispersion of aerosol units, relative to larger mass median diameter” value in [2] (mass median diameter less than 4 microns vs exactly analogous units of larger mass median diameter) is given as “greater dispersion than exactly analogous units containing nedocromil sodium of larger mass median diameter”.
Consider `FC(F)(Cl)C(F)(F)Cl` [Propellant 114, 1,2-dichlorotetrafluoroethane], for which the “vapour pressure (absolute)” value in [3] is “about 180 k Pa”.
With `CCCc1c2oc(C(=O)O)cc(=O)c2cc2c(=O)cc(C(=O)O)n(CC)c12` [Example 4], in [4], the mass mean diameter is 2.5 microns and 2.8 microns. Further, the aerosol dispersion in data set [2] (50 microliter valve, formulation described in Example 1) was 26% and 23%.
With `CCCc1c2oc(C(=O)O)cc(=O)c2cc2c(=O)cc(C(=O)O)n(CC)c12` [Form B], in data set [5], the “coalescence on change to form A” value was “can coalesce to produce hard and intractable lumps of particle size larger than the original material”; the “spontaneous change to form A” value is on record as “can, but does not necessarily,change spontaneously (sometimes after a very considerable time) to form A”. Also, in data set [6], the “bound water (in words)” value is recorded as “no bound water” and the “thermogravimetric trace (in words)” value was “essentially continuous trace”. Moreover, in [7], the “crystallinity by powder X-ray diffraction” value is reported as “amorphous”.
As to `CCCc1c2oc(C(=O)O)cc(=O)c2cc2c(=O)cc(C(=O)O)n(CC)c12` [Example 6], the “form of nedocromil sodium produced” value in data set [8] is “form B”. Further, the “bound water (in words)” value in [6] was “no tightly bound water”. Moreover, in data set [9], the viscosity of slurry result is “about 20,000 centipoise”.
Consider `CCCc1c2oc(C(=O)O)cc(=O)c2cc2c(=O)cc(C(=O)O)n(CC)c12` [Form A], for which the “thermogravimetric trace (in words)” value in data set [6] is “discontinuous”. In addition, the “removability of bound water on intensive drying” value in data set [6] (atmospheric pressure) is “cannot readily be removed by intensive drying at atmospheric pressure without destroying the compound”. In addition, the “crystallinity by powder X-ray diffraction” value in data set [7] is reported as “crystalline”.
On to `FC(F)(Cl)Cl` [Propellant 12, dichlorodifluoromethane], for which, in data set [3], the “vapour pressure (absolute)” value is on record as “about 570 k Pa”.
